The source of these data is patent US10988477B2 (Merck Patent GmbH, priority 2018, dated 2021).

The target in assay [1] is intracellular GCN2 (phosphorylation of the GCN2 substrate eIF2α) (Homo sapiens, UniProt Q9P2K8). Briefly: GCN2 cellular inhibition assay (AlphaScreen SureFire P-eIF2α Ser51, borrelidin-treated U2OS cells). It counts as cell-based. As to conditions: biomarker assay, phosphorylated eIF2α Ser51 in borrelidin-treated U2OS cells. In a few lines: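 Read-out: AlphaScreen SureFire phospho-eIF2α (Ser51) signal in U2OS lysates. Cells get 4-fold compound dilutions (top 40 μM final) plus 10 μM borrelidin, 1 h, 37 °C. Percent inhibition is relative to borrelidin-alone controls.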

Another assay addresses GCN2 kinase (Homo sapiens, UniProt Q9P2K8). Briefly: GCN2 enzyme inhibition assay (Transcreener ADP2 fluorescence polarization). Format: biochemical. As to conditions: 280 μM ATP. In a few lines: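 Human GCN2 (4 nM) preincubated 10 min with compound (0–8 μM) and 200 μM (RS)7 peptide in Tris-HCl pH 7.5, NaCl, MgCl2, DTT. Reaction started with 280 μM ATP, run 1 h at 25 °C. ADP detected by Transcreener fluorescence polarization. IC50 and Ki(app) fitted by tight-binding algorithm.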

Setting [2] is: compounds of Formula II, 4 nM GCN2 kinase.
Where [3] appears, read: Enzyme activity for compounds of Formula IV, Ki(app), 25° C.

intracellular GCN2 (phosphorylation of the GCN2 substrate eIF2α), sequence (Q9P2K8 whole entry): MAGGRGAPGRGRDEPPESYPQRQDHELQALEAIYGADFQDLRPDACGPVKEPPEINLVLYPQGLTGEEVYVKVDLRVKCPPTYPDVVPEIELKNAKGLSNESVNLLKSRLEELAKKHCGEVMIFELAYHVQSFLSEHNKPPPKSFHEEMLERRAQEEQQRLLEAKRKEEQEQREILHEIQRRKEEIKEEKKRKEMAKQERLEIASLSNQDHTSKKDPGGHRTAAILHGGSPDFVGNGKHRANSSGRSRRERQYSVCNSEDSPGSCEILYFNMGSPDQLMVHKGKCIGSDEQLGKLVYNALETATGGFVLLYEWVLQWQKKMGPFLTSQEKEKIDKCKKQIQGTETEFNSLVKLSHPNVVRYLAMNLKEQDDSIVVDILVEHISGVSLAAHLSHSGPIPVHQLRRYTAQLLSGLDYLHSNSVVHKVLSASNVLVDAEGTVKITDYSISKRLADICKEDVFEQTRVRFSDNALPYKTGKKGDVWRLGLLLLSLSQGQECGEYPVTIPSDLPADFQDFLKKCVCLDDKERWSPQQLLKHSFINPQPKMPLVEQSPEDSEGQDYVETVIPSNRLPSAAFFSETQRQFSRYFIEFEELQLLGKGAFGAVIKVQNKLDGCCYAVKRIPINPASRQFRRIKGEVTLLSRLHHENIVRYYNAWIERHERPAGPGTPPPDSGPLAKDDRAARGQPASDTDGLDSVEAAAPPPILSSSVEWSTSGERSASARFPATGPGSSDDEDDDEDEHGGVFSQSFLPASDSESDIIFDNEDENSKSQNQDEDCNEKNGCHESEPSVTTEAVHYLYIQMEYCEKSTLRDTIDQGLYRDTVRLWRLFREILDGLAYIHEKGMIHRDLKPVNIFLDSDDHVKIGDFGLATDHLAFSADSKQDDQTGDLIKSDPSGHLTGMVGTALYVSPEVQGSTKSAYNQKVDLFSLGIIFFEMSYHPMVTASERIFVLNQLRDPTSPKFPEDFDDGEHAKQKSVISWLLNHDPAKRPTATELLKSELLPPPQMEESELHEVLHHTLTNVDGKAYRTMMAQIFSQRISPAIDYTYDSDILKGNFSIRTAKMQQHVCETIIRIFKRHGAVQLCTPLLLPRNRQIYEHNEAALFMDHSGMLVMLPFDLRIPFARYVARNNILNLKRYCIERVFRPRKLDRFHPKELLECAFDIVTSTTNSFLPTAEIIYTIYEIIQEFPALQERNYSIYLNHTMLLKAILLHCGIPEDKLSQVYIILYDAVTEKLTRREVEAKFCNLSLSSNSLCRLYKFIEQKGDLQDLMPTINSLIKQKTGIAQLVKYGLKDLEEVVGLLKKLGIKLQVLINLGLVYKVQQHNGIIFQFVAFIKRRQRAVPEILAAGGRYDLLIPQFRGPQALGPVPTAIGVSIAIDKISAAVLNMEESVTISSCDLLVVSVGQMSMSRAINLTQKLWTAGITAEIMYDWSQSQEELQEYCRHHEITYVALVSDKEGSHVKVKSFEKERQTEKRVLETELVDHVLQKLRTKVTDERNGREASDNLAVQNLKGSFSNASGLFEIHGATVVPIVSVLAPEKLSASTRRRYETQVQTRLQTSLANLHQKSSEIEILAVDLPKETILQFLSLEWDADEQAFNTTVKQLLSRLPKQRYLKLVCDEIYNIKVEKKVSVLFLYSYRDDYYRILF
GCN2 kinase, sequence (Q9P2K8 whole entry): as above

Consider `CC1CC(N=S(C)(C)=O)CN(c2cc(-c3cnc4ccc(C(F)F)nn34)ncn2)C1` (single isomer, unassigned) [II-540, ((1-(6-(6-(Difluoromethyl)imidazo[1,2-b]pyridazin-3-yl)pyrimidin-4-yl)-5-methylpiperidin-3-yl)imino)dimethyl-λ^6-sulfanone], for which, in assay [1] (compounds of Formula II), the IC50 is 500 to 5000 nM. The same compound registered a Ki on GCN2 kinase (setting [2]) of 10 to 1000 nM.

In assay [1] (compounds of Formula II), `CN(CC1CC(O)CN(c2cc(-c3cnc4ccc(C(F)F)nn34)ncn2)C1)S(C)(=O)=O` (stereo not shown) [II-235, N-((1-(6-(6-(Difluoromethyl)imidazo[1,2-b]pyridazin-3-yl)pyrimidin-4-yl)-5-hydroxypiperidin-3-yl)methyl)-N-methylmethanesulfonamide] returned an IC50 of 500 to 5000 nM. Besides, the Ki on GCN2 kinase (setting [2]) lay within 10 to 1000 nM.

In turn, `OCC1CCCN1c1ccnc(-c2cnc3cnc(C(F)(F)F)cn23)n1` (stereo not shown) [IV-436, (1-(2-(6-(Trifluoromethyl)imidazo[1,2-a]pyrazin-3-yl)pyrimidin-4-yl)pyrrolidin-2-yl)methanol] gave a 50% inhibitory concentration (IC50) in assay [1] (compounds of Formula IV) above 5000 nM. For the same compound, the Ki at GCN2 kinase (setting [3]) lay within 100 to 1000 nM.

In the case of `O=S(=O)(C1CCCN(c2ccnc(-c3cnc4cnc(C(F)F)cn34)n2)C1)N1CCOCC1` (stereo not shown) [IV-172, 4-((1-(2-(6-(Difluoromethyl)imidazo[1,2-a]pyrazin-3-yl)pyrimidin-4-yl)piperidin-3-yl)sulfonyl)morpholine], the IC50 in assay [1] (compounds of Formula IV) is above 5000 nM. Moreover, the Ki on GCN2 kinase (setting [3]) was 100 to 1000 nM.

`COCCNc1cc(-c2cnc3ccc(C(F)F)nn23)cc(N2CCCC(CNS(C)(=O)=O)C2)n1` (stereo not shown) [II-89, N-((1-(4-(6-(Difluoromethyl)imidazo[1,2-b]pyridazin-3-yl)-6-((2-methoxyethyl)amino)pyridin-2-yl)piperidin-3-yl)methyl)methanesulfonamide] registered an IC50 in assay [1] (compounds of Formula II) of 500 to 5000 nM. The Ki at GCN2 kinase (setting [2]) was below 10 nM.

On to `CC1C(c2cn[nH]c2)NCCN1c1ccnc(-c2cnc3cnc(Cl)cn23)n1` (single isomer, unassigned) [IV-230, 6-Chloro-3-(4-(2-methyl-3-(1H-pyrazol-4-yl)piperazin-1-yl)pyrimidin-2-yl)imidazo[1,2-a]pyrazine], for which the concentration for half-maximal inhibition (IC50) in assay [1] (compounds of Formula IV) lay within 500 to 5000 nM. The compound further had a Ki on GCN2 kinase (setting [3]) below 10 nM.

In turn, `O=C(C1CCCN(c2ccnc(-c3cnc4cnc(C(F)F)cn34)n2)C1)N1CCNCC1` (stereo not shown) [IV-139, (1-(2-(6-(Difluoromethyl)imidazo[1,2-a]pyrazin-3-yl)pyrimidin-4-yl)piperidin-3-yl)(piperazin-1-yl)methanone] displayed an IC50 in assay [1] (compounds of Formula IV) above 5000 nM. This compound also gave a Ki at GCN2 kinase (setting [3]) of 100 to 1000 nM.

Turning to `C[C@@H]1C[C@H](N=S(C)(C)=O)[C@H](C)N(c2cc(-c3cnc4ccc(C(F)F)nn34)ncn2)C1` (single isomer, unassigned) [II-631], the IC50 in assay [1] (compounds of Formula II) was below 500 nM. On GCN2 kinase (setting [2]), this compound yielded a Ki below 10 nM.

In assay [1] (compounds of Formula II), `CC1C(NS(C)(=O)=O)CCCN1c1cc(-c2cnc3ccc(C(F)F)nn23)ncn1` (single isomer, unassigned) [II-374, N-[1-[6-[6-(Difluoromethyl)imidazo[1,2-b]pyridazin-3-yl]pyrimidin-4-yl]-2-methyl-3-piperidyl]methanesulfonamide] registered an IC50 of 500 to 5000 nM. On GCN2 kinase (setting [2]), this compound had a Ki of 10 to 1000 nM.

On to `CS(=O)(=O)NCC1CN(c2cc(-c3cnc4ccc(C(F)F)nn34)ncn2)CC1O` (stereo not shown) [II-152, N-((1-(6-(6-(Difluoromethyl)imidazo[1,2-b]pyridazin-3-yl)pyrimidin-4-yl)-4-hydroxypyrrolidin-3-yl)methyl)methanesulfonamide], for which the IC50 in assay [1] (compounds of Formula II) is above 5000 nM. This compound came in with a Ki on GCN2 kinase (setting [2]) of 10 to 1000 nM.

Take `CC1CN(c2ccnc(-c3cnc4cnc(Cl)cn34)n2)C(C)C(c2cn[nH]c2)N1` (single isomer, unassigned) [IV-247, 6-Chloro-3-(4-(2,5-dimethyl-3-(1H-pyrazol-4-yl)piperazin-1-yl)pyrimidin-2-yl)imidazo[1,2-a]pyrazine]: the IC50 in assay [1] (compounds of Formula IV) is below 500 nM. Moreover, the Ki at GCN2 kinase (setting [3]) was below 10 nM.
